Patent US10028992B2, “Methods of treating muscular dystrophy” (BOARD OF REGENTS OF THE NEVADA SYSTEM OF HIGHER EDUCATION …, priority 2012, dated 2018)

Tested on: α7 integrin promoter
Assay: muscle cell-based assay: α7βgal+/− myoblasts/myotubes, LacZ reporter, β-galactosidase cleavage of FDG
Design: species or system mouse; Results in α7+/− β-galactosidase assay: scale not given here
Conditions: for EC50 / AC50: Mus musculus; for EC50: given as log AC50 (negative values), read-out: Fit LogAC50 (converted); for Fit Curve Class: key not given; for Results in a α7+/− β-galactosidase assay, Myotubes, 0.5 uM: compound at 0.5 uM; for Results in a α7+/− β-galactosidase assay, Myotubes, 1 uM: compound at 1 uM; for Results in a α7+/− β-galactosidase assay, Myotubes, 5 uM: compound at 5 uM; for Results in a α7+/− β-galactosidase assay, Myotubes, 10 uM: compound at 10 uM; for Results in a α7+/− β-galactosidase assay, Myotubes, 20 uM: compound at 20 uM; for Results in a α7+/− β-galactosidase assay, Myotubes, 40 uM: compound at 40 uM; for Results in α7+/− β-galactosidase assay: Myoblasts; for AC50: log of AC50, given with negative sign, unit of AC50 not given, read-out: Fit Log AC50 (converted)
Procedure: An α7 integrin null mouse was produced in which exon 1 of the gene encoding the α7 integrin was replaced by the LacZ reporter. In these mice, all the transcriptional regulatory elements of the α7 integrin promoter were retained, allowing β-galactosidase to report expression of 7 integrin. A primary myoblast cell line (designated α7βgal^+/−) isolated from 10 day old α7^+/− pups were analyzed for the ability of β-galactosidase to report α7 integrin expression. α7βgal^+/− myoblasts were differentiated and subjected to X-gal staining and western analysis (FIGS. 1A and 1B).
The activity of the α7 integrin promoter was measured by β-galactosidase cleavage of the non-fluorescent compound fluorescein di-β-D-galactopyranoside (FDG) to fluorescein. This assay was used to screen compound libraries to identify molecules that up-regulate α7 integrin expression in muscle.
Also evaluated was the effect of various isoforms of laminin and the ligand for α7β1 integrin on integrin expression. Positive hits were subjected to dose-response analysis, western analysis and a myostatin counterscreen (a negative regulator of muscle growth).

[1] = curve fit, activity at zero concentration
[2] = Table 12, fitted activity at zero concentration
[3] = Table 12 Compound data, concentration-response curve fit

CCCOc1nc(SCCC)nc2c1cnn2-c1ccccc1 [Compound 178]
EC50: 11.2 µM | Score (Table 12 compound data): 42 | Fit Curve Class (curve class number): 2.1 | Fit HillSlope (curve fit): 1.1341 | Fit Zero Activity [%] [1]: −22.6542%

CC(C)(C)c1csc(NC(=O)c2cccnc2)n1 [drawing 455]
Results in a α7+/− β-galactosidase assay, Myotubes, 0.5 uM: −0.1018 | Results in a α7+/− β-galactosidase assay, Myotubes, 1 uM: −0.04907 | Results in a α7+/− β-galactosidase assay, Myotubes, 5 uM: 0.01472 | Results in a α7+/− β-galactosidase assay, Myotubes, 10 uM: 0.1276 | Results in a α7+/− β-galactosidase assay, Myotubes, 20 uM: −0.2798 | Results in a α7+/− β-galactosidase assay, Myotubes, 40 uM: −0.144

CC(C)(C)NC(=O)NC(=O)CN1CCN(Cc2ccccc2)CC1 [drawing 632]
Results in α7+/− β-galactosidase assay (0.5 uM): 0.1233 | Results in α7+/− β-galactosidase assay (1 uM): −0.06967 | Results in α7+/− β-galactosidase assay (5 uM): −0.04648 | Results in α7+/− β-galactosidase assay (10 uM): 0.1725 | Results in α7+/− β-galactosidase assay (20 uM): −0.02695 | Results in α7+/− β-galactosidase assay (40 uM): −0.05859

Fc1ccc(-c2ccnc3nc(N4CCN(c5ccccc5)CC4)nn23)cc1 [drawing 441]
Results in a α7+/− β-galactosidase assay, Myotubes, 0.5 uM: 0.1617 | Results in a α7+/− β-galactosidase assay, Myotubes, 1 uM: 0.1989 | Results in a α7+/− β-galactosidase assay, Myotubes, 5 uM: 0.08445 | Results in a α7+/− β-galactosidase assay, Myotubes, 10 uM: 0.3037 | Results in a α7+/− β-galactosidase assay, Myotubes, 20 uM: −0.1429 | Results in a α7+/− β-galactosidase assay, Myotubes, 40 uM: 0.1756

CCCC(=O)Nc1ccccc1NC(=O)c1ccc(OCC)cc1 [Compound 206]
EC50: 11.2 µM | Score (Table 12 compound data): 42 | Fit Curve Class (curve class number): 2.1 | Fit HillSlope (curve fit): 4.095 | Fit Zero Activity [%] [1]: 13.9528%

CN1CCN(c2ccccc2/C=C2\C(=O)Nc3ccccc32)CC1 [drawing 463]
Results in a α7+/− β-galactosidase assay, Myotubes, 0.5 uM: 0.01535 | Results in a α7+/− β-galactosidase assay, Myotubes, 1 uM: 0.02095 | Results in a α7+/− β-galactosidase assay, Myotubes, 5 uM: −0.163 | Results in a α7+/− β-galactosidase assay, Myotubes, 10 uM: −0.162 | Results in a α7+/− β-galactosidase assay, Myotubes, 20 uM: −0.1247 | Results in a α7+/− β-galactosidase assay, Myotubes, 40 uM: −0.07473

Cc1[nH]c2ccc(F)cc2c1CCN(Cc1ccco1)/C(S)=N/C(C)(C)C [drawing 639]
Results in α7+/− β-galactosidase assay (0.5 uM): 0.1665 | Results in α7+/− β-galactosidase assay (1 uM): 0.002443 | Results in α7+/− β-galactosidase assay (5 uM): −0.08261 | Results in α7+/− β-galactosidase assay (10 uM): −0.1049 | Results in α7+/− β-galactosidase assay (20 uM): −0.2055 | Results in α7+/− β-galactosidase assay (40 uM): −0.2801

CC(C(=O)Nc1ccc(C#N)cc1)N(C)CC(=O)Nc1cccc(F)c1 (stereo not shown) [drawing 630]
Results in α7+/− β-galactosidase assay (0.5 uM): 0.01302 | Results in α7+/− β-galactosidase assay (1 uM): −0.06275 | Results in α7+/− β-galactosidase assay (5 uM): 0.01684 | Results in α7+/− β-galactosidase assay (10 uM): 0.1242 | Results in α7+/− β-galactosidase assay (20 uM): −0.01497 | Results in α7+/− β-galactosidase assay (40 uM): −0.1721

COC(=O)C1=NNC2(C)C(=O)N(c3ccc(C)cc3)C(=O)C12 (stereo not shown) [Compound 177]
EC50: 10 µM | Score (Table 12 compound data): 42 | Fit Curve Class (curve class number): 2.2 | Fit HillSlope (curve fit): 4.9549 | Fit Zero Activity [%] [1]: 0.9153%

CC(=O)Nc1ccc(NC(=O)c2cc(=O)c3cc(C)cc(C)c3o2)cc1 [Compound 159]
EC50: 11.2 µM | Score (Table 12 compound data): 42 | Fit Curve Class (curve class number): 2.1 | Fit HillSlope (curve fit): 4.095 | Fit Zero Activity [%] [1]: −2.9033%

COc1ccc(N2CCN(C(=O)c3cc(C)on3)CC2)cc1 [drawing 331]
Results in a α7+/− β-galactosidase assay, Myotubes, 0.5 uM: 0.1218 | Results in a α7+/− β-galactosidase assay, Myotubes, 1 uM: 0.07329 | Results in a α7+/− β-galactosidase assay, Myotubes, 5 uM: 0 .416848 | Results in a α7+/− β-galactosidase assay, Myotubes, 10 uM: 0.01619 | Results in a α7+/− β-galactosidase assay, Myotubes, 20 uM: −0.09449 | Results in a α7+/− β-galactosidase assay, Myotubes, 40 uM: −0.06707

CC(C)(C)Nc1nc(-c2ccc3c(c2)CCN3C(=O)C2CC2)cs1 [drawing 553]
Results in α7+/− β-galactosidase assay (0.5 uM): 0.1228 | Results in α7+/− β-galactosidase assay (1 uM): 0.2827 | Results in α7+/− β-galactosidase assay (5 uM): 0.1111 | Results in α7+/− β-galactosidase assay (10 uM): −0.01717 | Results in α7+/− β-galactosidase assay (20 uM): −0.1366 | Results in α7+/− β-galactosidase assay (40 uM): −0.2135

COc1ccccc1C(=O)OCc1ccc2sc(C)nc2c1 [drawing 586]
Results in α7+/− β-galactosidase assay (0.5 uM): 0.191 | Results in α7+/− β-galactosidase assay (1 uM): −0.07182 | Results in α7+/− β-galactosidase assay (5 uM): 0.1329 | Results in α7+/− β-galactosidase assay (10 uM): 0.00833 | Results in α7+/− β-galactosidase assay (20 uM): 0.1184 | Results in α7+/− β-galactosidase assay (40 uM): 0.01583

CNC(=O)CSc1nnc(-c2ccc3c(c2)OCO3)n1C [drawing 536]
Results in α7+/− β-galactosidase assay (0.5 uM): 0.1583 | Results in α7+/− β-galactosidase assay (1 uM): 0.04195 | Results in α7+/− β-galactosidase assay (5 uM): 0.03203 | Results in α7+/− β-galactosidase assay (10 uM): 0.03846 | Results in α7+/− β-galactosidase assay (20 uM): −0.04001 | Results in α7+/− β-galactosidase assay (40 uM): −0.01341

COc1cc(NC(=O)CN(C)S(=O)(=O)c2ccc3c(c2)CC(C)N3C(C)=O)cc(OC)c1OC (stereo not shown) [Compound 145]
EC50: 10 µM | Score (Table 12 compound data): 42 | Fit Curve Class (curve class number): 2.2 | Fit HillSlope (curve fit): 4.9549 | Fit Zero Activity [%] [1]: 0.4668%

CS(=O)(=O)Cc1cccc(C(=O)NN(c2ccccc2)c2ccccc2)c1 [Compound 102]
AC50 (Table 12): 12.6 µM | Fit HillSlope (Table 12, curve fit): 4.5045 | Fit Zero Activity [%] [2]: 10.4042% | Fit Curve Class (Table 12): 2.1 | Score [3]: 43

CCOc1ccccc1Nc1cc2n(c(=O)n1)CCc1cc(OC)c(OC)cc1-2 [drawing 438]
Results in a α7+/− β-galactosidase assay, Myotubes, 0.5 uM: 0.06921 | Results in a α7+/− β-galactosidase assay, Myotubes, 1 uM: 0.1295 | Results in a α7+/− β-galactosidase assay, Myotubes, 5 uM: −0.255 | Results in a α7+/− β-galactosidase assay, Myotubes, 10 uM: −0.3585 | Results in a α7+/− β-galactosidase assay, Myotubes, 20 uM: −0.1938 | Results in a α7+/− β-galactosidase assay, Myotubes, 40 uM: −0.1921

COc1ccc(Nc2ncnc3ccc(Br)cc23)cc1OC [Compound 75]
AC50 (Table 12): 3.98 µM | Fit HillSlope (Table 12, curve fit): 1.5579 | Fit Zero Activity [%] [2]: 26.9551% | Fit Curve Class (Table 12): 2.2 | Score [3]: 44

NC(=O)c1sc2nc3c(cc2c1N)CCC3 [drawing 608]
Results in α7+/− β-galactosidase assay (0.5 uM): 0.003482 | Results in α7+/− β-galactosidase assay (1 uM): 0.04559 | Results in α7+/− β-galactosidase assay (5 uM): 0.02429 | Results in α7+/− β-galactosidase assay (10 uM): 0.07579 | Results in α7+/− β-galactosidase assay (20 uM): 0.3169 | Results in α7+/− β-galactosidase assay (40 uM): 0.4925

O=Cc1cnc(N2CCCCC2)s1 [Compound 191]
EC50: 11.2 µM | Score (Table 12 compound data): 42 | Fit Curve Class (curve class number): 2.1 | Fit HillSlope (curve fit): 4.9549 | Fit Zero Activity [%] [1]: −19.3188%

CCOc1cc2c3c(c1)C(C)=CC(C)(C)N3C(=O)C2=O [drawing 650]
Results in α7+/− β-galactosidase assay (0.5 uM): 0.1703 | Results in α7+/− β-galactosidase assay (1 uM): 0.1592 | Results in α7+/− β-galactosidase assay (5 uM): −0.1933 | Results in α7+/− β-galactosidase assay (10 uM): −0.4363 | Results in α7+/− β-galactosidase assay (20 uM): −0.8277 | Results in α7+/− β-galactosidase assay (40 uM): −0.8257

O=C1C2CCCN2C(=O)N1CCCN1CCN(c2cccc(Br)c2)CC1 (stereo not shown) [drawing 453]
Results in a α7+/− β-galactosidase assay, Myotubes, 0.5 uM: −0.101 | Results in a α7+/− β-galactosidase assay, Myotubes, 1 uM: −0.07437 | Results in a α7+/− β-galactosidase assay, Myotubes, 5 uM: −0.1132 | Results in a α7+/− β-galactosidase assay, Myotubes, 10 uM: 0.07677 | Results in a α7+/− β-galactosidase assay, Myotubes, 20 uM: −0.1243 | Results in a α7+/− β-galactosidase assay, Myotubes, 40 uM: 0.1476
